Experimental data as given in patent publication US10307404B1, “Ocular formulations for drug-delivery to the posterior segment of the eye” (priority 2013, dated 2019).
Read-outs that look alike come from different tables or passages of the source.

What was measured:
[1] = PK of topical ocular sodium phosphate-based Gel Drop, concentrations 1 hour after last dose; format: in vivo, Dutch-belted rabbits; conditions: Dutch-belted, rabbit
Source text: The Gel Drop of Compound-I was applied to eyes of Dutch-belted rabbits.

[2] = design: species or system Dutch-Belted rabbits; conditions: rabbit, in vivo
Method: The ocular solution of Compound-I comprising cyclodextrin was prepared and tested in different groups of animals.

[3] = design: species or system Dutch-Belted rabbits and beagle dogs; conditions: Dutch-belted, beagle, rabbit, dog, in vivo
Source text: Animals that received topical ocular administration of the tromethamine-based suspension were able to tolerate up to higher level of the active agent concentration in the formulation, as compared to equimolar formulations of the sodium phosphate-based Gel Drop.
Overall, the combination of decreased corneal exposure and corresponding improved ocular tolerability, while simultaneously maintaining or promoting drug delivery to the posterior segment target tissues, along with improved physicochemical stability, will provide greater benefit to patients compared to the ophthalmic Gel Drop formulation.
Retinal function was normal in all test article and vehicle treated groups during full-field electroretinograms performed in rabbits.

Compound: Cl.NC(=O)c1c(OCc2c(F)cc(Br)cc2F)nsc1NC(=O)NCCCCN1CCCC1 [Compound-I, 3-[(4-bromo-2,6-difluorophenyl)methoxy]-5-[[[[4-(1-pyrrolidinyl)butyl]amino]carbonyl]amino]-4-isothiazolecarboxamide hydrochloride]
- concentration at 1 h ([1]; choroid, 2 mg/ml, pH 6.1, 2 mg/ml pH 6.1 Phos […] Osmo 22, 3x/day 5 days, read-out: MEAN [choroid]): 356 nM
- concentration at 1 h ([1]; choroid, 2 mg/ml, pH 6.1, 2 mg/ml pH 6.1 Phos […] Osmo 34, 3x/day 4 days, read-out: MEAN [choroid]): 466 nM
- concentration at 1 h ([1]; choroid, 4 mg/ml, pH 6, 4 mg/ml pH 6.0 Phos 0.2% BAK 0.005% Gly 2%, 3x/day 5 days, read-out: MEAN [choroid]): 596 nM
- concentration at 1 h ([1]; choroid, 5 mg/ml, pH 6, 5 mg/ml pH 6 Phos 0.2% BAK 0.005% Gly 2% Osmo 273, 3x/day 5 days, read-out: MEAN [choroid]): 1160 nM
- concentration at 1 h ([1]; choroid, 5 mg/ml, pH 6, 5 mg/ml pH 6 Phos 0.2% BAK 0.005% Gly 2% PS80 1% Polox 0.2% Osmo 288, 3x/day 5 days, read-out: MEAN [choroid]): 612 nM
- concentration at 1 h ([1]; choroid, 6 mg/ml, pH 5.9, 6 mg/ml pH 5.9 Phos 0.05% BAK 0.005% Gly 2% PS80 1% Tylox 0.1% Polox 0.2% Osmo 270, 3x/day 4 days, read-out: MEAN [choroid]): 22.4 nM
- concentration at 1 h ([1]; choroid, 6 mg/ml, pH 5.9, 6 mg/ml pH 5.9 Phos […] Osmo 80, 3x/day 4 days, read-out: MEAN [choroid]): 823 nM
- concentration at 1 h ([1]; choroid, 6 mg/ml, pH 6.1, 6 mg/ml pH 6.1 Phos 0.05% BAK 0.005% Gly 2% PS80 1% Tylox 0.1% Osmo 248, 3x/day 5 days, read-out: MEAN [choroid]): 779 nM
- concentration at 1 h ([1]; plasma, 1 mg/ml, pH 6, 1 mg/ml pH 6.0 Phos 0.05% BAK 0.005% Gly 2% PS80 0.01% Tylox 0.2%, 3x/day 5 days, read-out: [plasma]): 3.49 nM
- concentration at 1 h ([1]; plasma, 1 mg/ml, pH 6, 1 mg/ml pH 6 Phos 0.05% BAK 0.005% Gly 2%, 3x/day 5 days, read-out: [plasma]): 4.45 nM
- concentration at 1 h ([1]; plasma, 1 mg/ml, pH 6, 1 mg/ml pH 6.0 Phos 0.2% BAK 0.005% Gly 2% PS80 1% Tylox 0.2%, 3x/day 5 days, read-out: [plasma]): 2.89 nM
- concentration at 1 h ([1]; plasma, 1 mg/ml, pH 6, 1 mg/ml pH 6.0 Phos 0.2% BAK 0.005% Gly 2%, 3x/day 5 days, read-out: [plasma]): 3.97 nM
- concentration at 1 h ([1]; plasma, 2 mg/ml, pH 6, 2 mg/ml pH 6 BAK 0.005% Gly 2% Osmo 232, 3x/day 5 days, read-out: [plasma]): 5.41 nM
- concentration at 1 h ([1]; plasma, 2 mg/ml, pH 6, 2 mg/ml pH 6.0 Phos 0.02% BAK 0.005% Gly 2% PS80 1% Tylox 0.2%, 3x/day 5 days, read-out: [plasma]): 4.46 nM
- concentration at 1 h ([1]; plasma, 2 mg/ml, pH 6, 2 mg/ml pH 6 Phos 0.05% BAK 0.005% Gly 2% Osmo 244, 3x/day 5 days, read-out: [plasma]): 5.92 nM
- concentration at 1 h ([1]; plasma, 2 mg/ml, pH 6, 2 mg/ml pH 6 Phos 0.05% BAK 0.005% Gly 2% PS80 1% Osmo 261, 3x/day 5 days, read-out: [plasma]): 4.15 nM
- concentration at 1 h ([1]; plasma, 2 mg/ml, pH 6, 2 mg/ml pH 6.0 Phos 0.05% BAK 0.005% Gly 2% PS80 1% Tylox 0.2%, 3x/day 5 days, read-out: [plasma]): 4.36 nM
- concentration at 1 h ([1]; plasma, 2 mg/ml, pH 6, 2 mg/ml pH 6.0 Phos 0.05% BAK 0.005% Gly 2%, 3x/day 5 days, read-out: [plasma]): 5.79 nM
- concentration at 1 h ([1]; plasma, 2 mg/ml, pH 6, 2 mg/ml pH 6.0 Phos 0.1% BAK 0.005% Gly 2%, 3x/day 5 days, read-out: [plasma]): 5.71 nM
- concentration at 1 h ([1]; plasma, 2 mg/ml, pH 6, 2 mg/ml pH 6 Phos 0.2% BAK 0.005% Gly 2% Osmo 257, 3x/day 5 days, read-out: [plasma]): 5.26 nM
- concentration at 1 h ([1]; plasma, 2 mg/ml, pH 6, 2 mg/ml pH 6 Phos 0.2% BAK 0.005% Gly 2% PS80 1% Osmo 281, 3x/day 5 days, read-out: [plasma]): 4.94 nM
- concentration at 1 h ([1]; plasma, 2 mg/ml, pH 6, 2 mg/ml pH 6.0 Phos 0.2% BAK 0.005% Gly 2%, 3x/day 5 days, read-out: [plasma]): 4.47 nM
- concentration at 1 h ([1]; plasma, 2 mg/ml, pH 6.1, 2 mg/ml pH 6.1 Phos […] Osmo 34, 3x/day 4 days, read-out: [plasma]): 4.81 nM
- concentration at 1 h ([1]; plasma, 4 mg/ml, pH 6, 4 mg/ml pH 6.0 Phos 0.2% BAK 0.005% Gly 2%, 3x/day 5 days, read-out: [plasma]): 5.84 nM
- concentration at 1 h ([1]; plasma, 4 mg/ml, pH 6, 4 mg/ml pH 6.0 Phos 2% BAK 0.005% Gly 2% PS80 1% Tylox 0.2%, 3x/day 5 days, read-out: [plasma]): 8.06 nM
- concentration at 1 h ([1]; plasma, 6 mg/ml, pH 5.9, 6 mg/ml pH 5.9 Phos 0.05% BAK 0.005% Gly 2% PS80 1% Tylox 0.1% Polox 0.2% Osmo 270, 3x/day 4 days, read-out: [plasma]): 15.6 nM
- concentration at 1 h ([1]; plasma, 6 mg/ml, pH 5.9, 6 mg/ml pH 5.9 Phos 0.1% BAK 0.005% Gly 2% Polox 0.2% Osmo 257, 3x/day 4 days, read-out: [plasma]): 8.43 nM
- concentration at 1 h ([1]; retina, 1 mg/ml, pH 6, 1 mg/ml pH 6.0 Phos 0.05% BAK 0.005% Gly 2% PS80 0.01% Tylox 0.2%, 3x/day 5 days, read-out: Mean [retina]): 46.8 nM
- concentration at 1 h ([1]; retina, 1 mg/ml, pH 6, 1 mg/ml pH 6.0 Phos 0.2% BAK 0.005% Gly 2% PS80 1% Tylox 0.2%, 3x/day 5 days, read-out: Mean [retina]): 32.7 nM
- concentration at 1 h ([1]; retina, 1 mg/ml, pH 6, 1 mg/ml pH 6.0 Phos 0.2% BAK 0.005% Gly 2%, 3x/day 5 days, read-out: Mean [retina]): 90.8 nM
- concentration at 1 h ([1]; retina, 2 mg/ml, pH 6, 2 mg/ml pH 6.0 Phos 0.02% BAK 0.005% Gly 2% PS80 1% Tylox 0.2%, 3x/day 5 days, read-out: Mean [retina]): 92.9 nM
- concentration at 1 h ([1]; retina, 2 mg/ml, pH 6, 2 mg/ml pH 6 Phos 0.05% BAK 0.005% Gly 2% Osmo 244, 3x/day 5 days, read-out: Mean [retina]): 121 nM
- concentration at 1 h ([1]; retina, 2 mg/ml, pH 6, 2 mg/ml pH 6 Phos 0.05% BAK 0.005% Gly 2% PS80 1% Osmo 261, 3x/day 5 days, read-out: Mean [retina]): 126 nM
- concentration at 1 h ([1]; retina, 2 mg/ml, pH 6, 2 mg/ml pH 6.0 Phos 0.05% BAK 0.005% Gly 2% PS80 1% Tylox 0.2%, 3x/day 5 days, read-out: Mean [retina]): 85.7 nM
- concentration at 1 h ([1]; retina, 2 mg/ml, pH 6, 2 mg/ml pH 6.0 Phos 0.05% BAK 0.005% Gly 2%, 3x/day 5 days, read-out: Mean [retina]): 113 nM
- concentration at 1 h ([1]; retina, 2 mg/ml, pH 6, 2 mg/ml pH 6.0 Phos 0.1% BAK 0.005% Gly 2%, 3x/day 5 days, read-out: Mean [retina]): 42.9 nM
- concentration at 1 h ([1]; retina, 2 mg/ml, pH 6, 2 mg/ml pH 6.0 Phos 0.2% BAK 0.005% Gly 2%, 3x/day 5 days, read-out: Mean [retina]): 34.8 nM
- concentration at 1 h ([1]; retina, 4 mg/ml, pH 6, 4 mg/ml pH 6.0 Phos 0.2% BAK 0.005% Gly 2%, 3x/day 5 days, read-out: Mean [retina]): 68.3 nM
- concentration at 1 h ([1]; retina, 4 mg/ml, pH 6, 4 mg/ml pH 6.0 Phos 2% BAK 0.005% Gly 2% PS80 1% Tylox 0.2%, 3x/day 5 days, read-out: Mean [retina]): 97.6 nM
- tolerability [2]: well-tolerated
- cornea concentration above which ocular side effects were more consistently observed [3]: exceeded 100 μM
